Test results reported in patent publication US20250144067A1, “PERSONALIZED STARVATION THERAPY FOR CANCER” (Faeth Therapeutics, Inc., priority 2021, published 2025).
Structures can show the parent of a compound that is named as a salt.

Experiments:
[1] = system: NCI-H292 lung cancer cells; experiment: FDA drug screening, complete media vs cholesterol-free media without statin (TABLE 1); format: cell-based, human
[2] = system: NCI-H292 lung cancer cells; experiment: FDA drug screening, complete media vs cholesterol-free media with simvastatin (TABLE 2); format: cell-based, human; conditions: for Cholesterol-free media + simvastatin (0.04 μM) / Complete Media: NCI-H292 cells
[3] = Complete minus Cholesterol-free, greater than 0 enhanced anti-cancer activity, about 0 neutral, below 0 antagonists
[4] = NCI-H292 cells in cholesterol-free media without statin
[5] = NCI-H292 cells in complete media
[6] = complete media vs cholesterol-free media + simvastatin (0.04 μM), >0 enhanced anti-cancer activity, about 0 neutral, <0 antagonist
[7] = NCI-H292 cells, cholesterol-free media without statin
[8] = complete vs cholesterol-free media, greater than 0 enhanced anti-cancer activity, about 0 neutral, below 0 antagonists
[9] = cholesterol-free media with simvastatin 0.04 μM, cell growth value in FDA drug screen
[10] = complete media, cell growth value in FDA drug screen
[11] = complete media minus cholesterol-free media + simvastatin, >0 enhanced anti-cancer activity, about 0 neutral, <0 antagonist
[12] = NCI-H292 cells, FDA drug library screen, cholesterol-free media without statin
[13] = NCI-H292 cells, FDA drug library screen, complete media
[14] = FDA drug library screen, cholesterol-free media with simvastatin 0.04 μM
[15] = FDA drug library screen, complete media
[16] = drug in cholesterol-free media with simvastatin 0.04 μM
[17] = Complete minus Cholesterol-free, […]
[18] = cholesterol-free media with simvastatin 0.04 μM, FDA drug library screen (TABLE 2)
[19] = complete media, FDA drug library screen (TABLE 2)
[20] = complete media minus cholesterol-free media + simvastatin (0.04 μM), >0 enhanced anti-cancer activity, about 0 neutral, <0 antagonist

How did the Difference [1, 3] turn out when `C=C1c2cccc(O)c2C(=O)C2=C(O)[C@]3(O)C(=O)C(C(N)=O)=C(O)[C@@H](N(C)C)[C@@H]3[C@@H](O)[C@H]12` [Methacycline (hydrochloride)] was run?
Its Difference is −0.57.

And the Cholesterol-free [1, 4]?
Its Cholesterol-free is 1.479.

And the Complete [1, 5]?
Its Complete is 0.9047.

What about the “Cholesterol-free media + simvastatin (0.04 μM)” value ([2]; FDA library drug in cholesterol-free media with simvastatin 0.04 μM) of the same compound?
The value was 1.315.

And the “Complete Media” value ([2]; FDA library drug in complete media)?
Its value is 0.995.

And the Difference [2, 6]?
The Difference was −0.32.

Which Cholesterol-free [1, 7] does the source give for `CCCC(=O)OCOC(=O)C1=C(C)NC(C)=C(C(=O)OC)C1c1cccc(Cl)c1Cl` (centres unmarked) [Clevidipine] here?
Its Cholesterol-free is 1.292.

What about the Complete ([1]; NCI-H292 cells, complete media) of the same compound?
Its Complete is 0.9289.

What about the Difference [1, 8] of the same compound?
Its Difference is −0.36.

And the “Cholesterol-free media + simvastatin (0.04 μM)” value [2, 9]?
The value was 0.8061.

What about the “Complete Media” value [2, 10] of the same compound?
Its value is 0.9036.

And the Difference [2, 11]?
Its Difference is 0.10.

For `O=C(Nc1cnn2ccc(N3CCC[C@@H]3c3cc(F)ccc3F)nc12)N1CC[C@H](O)C1` [Larotrectinib], which Difference ([1]; Complete minus Cholesterol-free, greater than 0 enhanced anti-cancer activity, about 0 neutral, below 0 antagonist) is on record?
The Difference was −0.08.

And the Cholesterol-free [1, 12]?
Its Cholesterol-free is 1.012.

What about the Complete [1, 13] of the same compound?
Its Complete is 0.9305.

And the “Cholesterol-free media + simvastatin (0.04 μM)” value [2, 9]?
The value was 1.092.

And the “Complete Media” value [2, 10]?
Its value is 1.143.

What about the Difference [2, 11] of the same compound?
The Difference was 0.05.

Which Cholesterol-free [1, 7] does the source give for `Cc1cnc(C(=O)O)c[n+]1[O-]` [Acipimox] here?
Its Cholesterol-free is 1.354.

And the Complete ([1]; NCI-H292 cells, complete media)?
The Complete was 1.008.

What about the Difference [1, 8] of the same compound?
Its Difference is −0.35.

What about the “Cholesterol-free media + simvastatin (0.04 μM)” value [2, 14] of the same compound?
The value was 1.352.

What about the “Complete Media” value [2, 15] of the same compound?
The value was 1.26.

What about the Difference [2, 6] of the same compound?
The Difference was −0.09.

For `OC(CCN1CCCC1)(c1ccccc1)C1CCCCC1` (centres unmarked) [Procyclidine (hydrochloride)], which Cholesterol-free [1, 7] is on record?
Its Cholesterol-free is 1.459.

What about the Complete ([1]; NCI-H292 cells, complete media) of the same compound?
The Complete was 0.997.

And the Difference [1, 8]?
The Difference was −0.46.

And the “Cholesterol-free media + simvastatin (0.04 μM)” value [2, 16]?
The value was 1.237.

What about the “Complete Media” value ([2]; drug in complete media) of the same compound?
Its value is 1.076.

And the Difference [2, 6]?
The Difference was −0.16.

What does the source list for `Cc1ncc([N+](=O)[O-])n1CC(O)CCl` (centres unmarked) [Ornidazole (Levo-)]?
Difference [1, 3]: −0.58; Cholesterol-free [1, 4]: 1.634; Complete [1, 5]: 1.058; Cholesterol-free media + simvastatin (0.04 μM) [2, 9]: 0.9725; Complete Media [2, 10]: 1.072; Difference [2, 11]: 0.10

`Cn1cc[nH]c1=S` [Methimazole] was tested. Which Difference ([1]; Complete minus Cholesterol-free, >0 enhanced anti-cancer activity, about 0 neutral, <0 antagonist) did it give?
Its Difference is −0.20.

What about the Cholesterol-free [1, 7] of the same compound?
Its Cholesterol-free is 1.024.

What about the Complete ([1]; NCI-H292 cells, complete media) of the same compound?
The Complete was 0.8245.

And the “Cholesterol-free media + simvastatin (0.04 μM)” value [2, 14]?
Its value is 1.144.

And the “Complete Media” value [2, 15]?
The value was 1.001.

What about the Difference [2, 6] of the same compound?
Its Difference is −0.14.

Which results are given for `COc1cc2c(Nc3ccc(Br)cc3F)ncnc2cc1OCC1CCN(C)CC1` [Vandetanib]?
Cholesterol-free ([1]; NCI-H292 cells, cholesterol-free media without statin, FDA drug library screen): 0.1902; Complete ([1]; NCI-H292 cells, complete media, FDA drug library screen): 0.3633; Difference ([1]; complete vs cholesterol-free media, >0 enhanced anti-cancer activity, about 0 neutral, <0 antagonist): 0.17; Cholesterol-free media + simvastatin (0.04 μM) [2, 14]: 0.4174; Complete Media [2, 15]: 0.7391; Difference [2, 11]: 0.32

Which Difference [1, 3] does the source give for `CN(C/C=C/c1ccccc1)Cc1cccc2ccccc12` [Naftifine (hydrochloride)] here?
The Difference was −0.88.

And the Cholesterol-free [1, 4]?
Its Cholesterol-free is 1.921.

And the Complete [1, 5]?
The Complete was 1.037.

And the “Cholesterol-free media + simvastatin (0.04 μM)” value [2, 14]?
Its value is 0.9055.

And the “Complete Media” value [2, 15]?
The value was 1.136.

What about the Difference [2, 11] of the same compound?
Its Difference is 0.23.

`CCN(CC)C(=O)C1(c2ccccc2)CC1CN.Cl` (stereo not drawn) [Milnacipran ((1S-cis)hydrochloride)] was tested. Which Difference [1, 17] did it give?
Its Difference is −0.18.

And the Cholesterol-free [1, 12]?
Its Cholesterol-free is 1.07.

What about the Complete [1, 13] of the same compound?
Its Complete is 0.894.

Dihydroergotoxine (mesylate) was tested. Which “Cholesterol-free media + simvastatin (0.04 μM)” value [2, 18] did it give?
Its value is 0.9089.

What about the “Complete Media” value [2, 19] of the same compound?
The value was 0.9065.

What about the Difference ([2]; complete media minus cholesterol-free media + simvastatin (0.04 μM), […]) of the same compound?
Its Difference is 0.00.

How did the Difference [1, 3] turn out when `CC(C)Cc1ccc([C@@H](C)C(=O)O)cc1` [(R)-(—)-Ibuprofen] was run?
The Difference was −0.96.

What about the Cholesterol-free [1, 4] of the same compound?
Its Cholesterol-free is 1.742.

What about the Complete [1, 5] of the same compound?
Its Complete is 0.7774.

Which results are given for `NS(=O)(=O)c1cc(C(=O)O)c(NCc2ccco2)cc1Cl` [Furosemide]?
Cholesterol-free media + simvastatin (0.04 μM) [2, 16]: 1.11; Complete Media ([2]; drug in complete media): 0.894; Difference [2, 6]: −0.22

Which “Cholesterol-free media + simvastatin (0.04 μM)” value [2, 18] does the source give for `NS(=O)(=O)c1cc(C(=O)O)c(NCc2ccco2)cc1Cl` [Furosemide (sodium)] here?
Its value is 1.074.

And the “Complete Media” value [2, 19]?
The value was 1.02.

What about the Difference [2, 20] of the same compound?
Its Difference is −0.05.

What does the source list for `CCN(CC)C(=O)C1(c2ccccc2)CC1CN.Cl` (stereo not drawn) [Milnacipran ((1S-cis) hydrochloride)]?
Cholesterol-free media + simvastatin (0.04 μM) [2, 14]: 0.9487; Complete Media [2, 15]: 0.8731; Difference ([2]; complete media vs cholesterol-free media + simvastatin (0.04 μM), […]): −0.08

For Escin, which Difference [1, 17] is on record?
Its Difference is −0.22.

What about the Cholesterol-free [1, 7] of the same compound?
Its Cholesterol-free is 1.276.

How did the Difference [2, 20] turn out when `CC(C)Cc1ccc([C@@H](C)C(=O)O)cc1` [(R)-(−)-Ibuprofen] was run?
The Difference was 0.01.

γ-Oryzanol was tested. Which “Complete Media” value [2, 15] did it give?
Its value is 1.39.

What about the Difference ([2]; complete media minus cholesterol-free media + simvastatin, […]) of the same compound?
Its Difference is 0.24.
